According to US20230085307A1, “PYRIDAZINONE COMPOUND AND HERBICIDE” (NISSAN CHEMICAL CORPORATION, priority 2019, published 2023):

Legend:
velvetleaf [1] = assay: Test Example 4: herbicidal effect by soil treatment (Table 19, symbol M); assay type: in vivo, velvetleaf (Abutilon theophrasti); details: 320 g/ha
Summary of the method: (§1)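 Soil-surface application: an emulsion agent diluted with water to the predetermined dose is sprayed uniformly over seeds lying under roughly 1.5 cm of sterilized diluvial soil. Boxes stay in a greenhouse at 25° C. to 30° C. Three weeks later, each species is graded on previously defined criteria.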

wild oat [2] = assay: Test Example 5: herbicidal effect by foliage application, plastic box (Table 20, symbol I); assay type: in vivo, wild oat (Avena fatua); details: foliage application, 320 g/ha, 3 weeks after application
Summary of the method: (§2)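 Sow seeds spot-wise in sterilized diluvial soil; cover with ~1.5 cm soil. Grow 14 days in greenhouse, 25° C. to 30° C. Spray foliage with emulsion diluted to predetermined amount. Rate effect after 3 weeks.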

wheat [3] = assay: Test Example 5: effect on crop by foliage application, plastic box (Table 20, symbol e); assay type: in vivo; details: 320 g/ha, 3 weeks after application
Text: (§3) [Test Example 5] Herbicidal Effect Test by Foliage Application
(§4) Sterilized diluvial soil was placed in a plastic box having a length of 21 cm, a width of 13 cm, and a depth of 7 cm. The seeds of each of southern crabgrass, green foxtail, barnyard grass, wild oat, blackgrass, Italian ryegrass, windgrass, velvetleaf, redroot pigweed, lambsquarters, chickweed, false cleavers, persian speedwell, corn, soybean, rice, wheat, beet, and rapeseed were sowed in a spot-like manner and covered with the soil having a thickness of about 1.5 cm. Thereafter, the plants were grown in a greenhouse at 25° C. to 30° C. After 14-day growth of the plants, the emulsion agent of the compound of the present invention prepared according to Formulation Example 2 was diluted with water so as to achieve a predetermined herbicide amount, and the diluted emulsion agent was uniformly applied to a foliage part with a small-sized spray. Three weeks after the herbicide application, the effect of the herbicide on each plant was evaluated according to the criteria of Test Example 1.

windgrass [4] = assay: Test Example 4: herbicidal effect by soil treatment (Table 19, symbol L); assay type: in vivo, windgrass (Apera spica-venti); details: 320 g/ha
Summary of the method: as §1

barnyard grass [5] = assay: Test Example 3: herbicidal effect by foliage application, Wagner pot (Table 18, symbol H); assay type: in vivo, barnyard grass (Echinochloa crus-galli); details: 320 g/ha
Summary of the method: (§5)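 Plants were sown in alluvial soil held under 0.1–0.5 cm standing water and grown 14 days in a greenhouse at 25–30 °C. An emulsifiable formulation, water-diluted to the set dose, was then sprayed onto the foliage, and effects were scored three weeks later using previously defined criteria.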

lambsquarters [6] = assay: Test Example 4: herbicidal effect by soil treatment (Table 19, symbol O); assay type: in vivo, lambsquarters (Chenopodium album); details: 320 g/ha
Summary of the method: as §1

directly sowed rice = assay: Test Example 3: effect on crop by foliage application, Wagner pot (Table 18, symbol b); assay type: in vivo; details: 320 g/ha
Summary of the method: as §5

beet [7] = assay: Test Example 4: effect on crop by soil treatment (Table 19, symbol f); assay type: in vivo; details: 320 g/ha
Text: [Test Example 4] Herbicidal Effect Test by Soil Treatment
as §4, with “Subsequently,” for “Thereafter, the plants were grown in a greenhouse at 25° C. to 30° C. After 14-day growth of the plants,”, “the surface of the soil” for “a foliage part”, “spray. The plastic box was placed in a greenhouse at 25° C. to 30° C. for growth of the plants.” for “spray.”

lambsquarters [8] = assay: Test Example 5: herbicidal effect by foliage application, plastic box (Table 20, symbol O); assay type: in vivo, lambsquarters (Chenopodium album); details: foliage application, 320 g/ha, 3 weeks after application
Summary of the method: as §2

velvetleaf [9] = assay: Test Example 5: herbicidal effect by foliage application, plastic box (Table 20, symbol M); assay type: in vivo, velvetleaf (Abutilon theophrasti); details: foliage application, 320 g/ha, 3 weeks after application
Summary of the method: as §2

Italian ryegrass [10] = assay: Test Example 5: herbicidal effect by foliage application, plastic box (Table 20, symbol K); assay type: in vivo, Italian ryegrass (Lolium multiflorum); details: foliage application, 320 g/ha, 3 weeks after application
Summary of the method: as §2

blackgrass [11] = assay: Test Example 4: herbicidal effect by soil treatment (Table 19, symbol J); assay type: in vivo, blackgrass (Alopecurus myosuroides); details: 320 g/ha
Summary of the method: as §1

Chinese sprangletop = assay: Test Example 3: herbicidal effect by foliage application, Wagner pot (Table 18, symbol D); assay type: in vivo, chinese sprangletop (Leptochloa chinensis); details: 320 g/ha
Summary of the method: as §5

rapeseed [12] = assay: Test Example 4: effect on crop by soil treatment (Table 19, symbol g); assay type: in vivo; details: 320 g/ha
Summary of the method: as §1

beet [13] = assay: Test Example 5: effect on crop by foliage application, plastic box (Table 20, symbol f); assay type: in vivo; details: 320 g/ha, 3 weeks after application
Text: as §3, §4

soybean [14] = assay: Test Example 5: effect on crop by foliage application, plastic box (Table 20, symbol d); assay type: in vivo; details: 320 g/ha, 3 weeks after application
Text: as §3, §4

redroot pigweed = assay: Test Example 4: herbicidal effect by soil treatment (Table 19, symbol N); assay type: in vivo, redroot pigweed (Amaranthus retroflexus); details: 320 g/ha
Summary of the method: as §1

rapeseed [15] = assay: Test Example 5: effect on crop by foliage application, plastic box (Table 20, symbol g); assay type: in vivo; details: 320 g/ha, 3 weeks after application
Text: as §3, §4

barnyard grass [16] = assay: Test Example 4: herbicidal effect by soil treatment (Table 19, symbol H); assay type: in vivo, barnyard grass (Echinochloa crus-galli); details: 320 g/ha
Summary of the method: as §1

Italian ryegrass [17] = assay: Test Example 4: herbicidal effect by soil treatment (Table 19, symbol K); assay type: in vivo, Italian ryegrass (Lolium multiflorum); details: 320 g/ha
Summary of the method: as §1

barnyard grass [18] = assay: Test Example 5: herbicidal effect by foliage application, plastic box (Table 20, symbol H); assay type: in vivo, barnyard grass (Echinochloa crus-galli); details: foliage application, 320 g/ha, 3 weeks after application
Summary of the method: as §2

wild oat [19] = assay: Test Example 4: herbicidal effect by soil treatment (Table 19, symbol I); assay type: in vivo, wild oat (Avena fatua); details: 320 g/ha
Summary of the method: as §1

corn [20] = assay: Test Example 5: effect on crop by foliage application, plastic box (Table 20, symbol c); assay type: in vivo; details: 320 g/ha, 3 weeks after application
Text: as §3, §4

southern crabgrass [21] = assay: Test Example 5: herbicidal effect by foliage application, plastic box (Table 20, symbol F); assay type: in vivo, southern crabgrass (Digitaria ciliaris); details: foliage application, 320 g/ha, 3 weeks after application
Summary of the method: as §2

wheat [22] = assay: Test Example 4: effect on crop by soil treatment (Table 19, symbol e); assay type: in vivo; details: 320 g/ha
Summary of the method: as §1

green foxtail [23] = assay: Test Example 4: herbicidal effect by soil treatment (Table 19, symbol G); assay type: in vivo, green foxtail (Setaria viridis); details: 320 g/ha
Summary of the method: as §1

rice flat sedge = assay: Test Example 3: herbicidal effect by foliage application, Wagner pot (Table 18, symbol E); assay type: in vivo, rice flat sedge (Cyperus iria); details: 320 g/ha
Summary of the method: as §5

corn [24] = assay: Test Example 4: effect on crop by soil treatment (Table 19, symbol c); assay type: in vivo; details: 320 g/ha
Summary of the method: as §1

persian speedwell [25] = assay: Test Example 5: herbicidal effect by foliage application, plastic box (Table 20, symbol R); assay type: in vivo, Persian speedwell (Veronica persica); details: foliage application, 320 g/ha, 3 weeks after application
Summary of the method: as §2

persian speedwell [26] = assay: Test Example 4: herbicidal effect by soil treatment (Table 19, symbol R); assay type: in vivo, Persian speedwell (Veronica persica); details: 320 g/ha
Summary of the method: as §1

southern crabgrass [27] = assay: Test Example 4: herbicidal effect by soil treatment (Table 19, symbol F); assay type: in vivo, southern crabgrass (Digitaria ciliaris); details: 320 g/ha
Summary of the method: as §1

blackgrass [28] = assay: Test Example 5: herbicidal effect by foliage application, plastic box (Table 20, symbol J); assay type: in vivo, blackgrass (Alopecurus myosuroides); details: foliage application, 320 g/ha, 3 weeks after application
Summary of the method: as §2

windgrass [29] = assay: Test Example 5: herbicidal effect by foliage application, plastic box (Table 20, symbol L); assay type: in vivo, windgrass (Apera spica-venti); details: foliage application, 320 g/ha, 3 weeks after application
Summary of the method: as §2

green foxtail [30] = assay: Test Example 5: herbicidal effect by foliage application, plastic box (Table 20, symbol G); assay type: in vivo, green foxtail (Setaria viridis); details: foliage application, 320 g/ha, 3 weeks after application
Summary of the method: as §2

soybean [31] = assay: Test Example 4: effect on crop by soil treatment (Table 19, symbol d); assay type: in vivo; details: 320 g/ha
Summary of the method: as §1

chickweed = assay: Test Example 4: herbicidal effect by soil treatment (Table 19, symbol P); assay type: in vivo, common chickweed (Stellaria media); details: 320 g/ha
Summary of the method: as §1

Compound: Cc1nn(C)c(=O)c(-c2c(-c3ccc(OC(F)F)cc3)sc3ccc(F)cc23)c1O [Compound No. 2-042, 4-(2-(4-(difluoromethoxy)phenyl)-5-fluorobenzo[b]thiophen-3-yl)-5-hydroxy-2,6-dimethylpyridazin-3(2H)-one]
- herbicidal effect rating, M: velvetleaf (velvetleaf [1]): 5 (Herbicidal rate of 90% or more (almost completely withered))
- effect on wild oat (I) (wild oat [2]): 3 (Herbicidal rate of 40% or more and less than 70%)
- melting point: 164 to 165 °C
- effect on wheat (e) (wheat [3]): 1 (Herbicidal rate of 5% or more and less than 20%)
- herbicidal effect rating, L: windgrass (windgrass [4]): 3 (Herbicidal rate of 40% or more and less than 70%)
- herbicidal effect on H (barnyard grass), rating 0-5 (barnyard grass [5]): 5 (Herbicidal rate of 90% or more (almost completely withered))
- herbicidal effect rating, O: lambsquarters (lambsquarters [6]): 5 (Herbicidal rate of 90% or more (almost completely withered))
- effect on crop b (directly sowed rice), rating 0-5 (directly sowed rice): 1 (Herbicidal rate of 5% or more and less than 20%)
- effect rating on crop, f: beet (beet [7]): 1 (Herbicidal rate of 5% or more and less than 20%)
- effect on lambsquarters (O) (lambsquarters [8]): 5 (Herbicidal rate of 90% or more (almost completely withered))
- effect on velvetleaf (M) (velvetleaf [9]): 5 (Herbicidal rate of 90% or more (almost completely withered))
- effect on Italian ryegrass (K) (Italian ryegrass [10]): 5 (Herbicidal rate of 90% or more (almost completely withered))
- herbicidal effect rating, J: blackgrass (blackgrass [11]): 3 (Herbicidal rate of 40% or more and less than 70%)
- herbicidal effect on D (Chinese sprangletop), rating 0-5 (Chinese sprangletop): 3 (Herbicidal rate of 40% or more and less than 70%)
- effect rating on crop, g: rapeseed (rapeseed [12]): 5 (Herbicidal rate of 90% or more (almost completely withered))
- effect on beet (f) (beet [13]): 5 (Herbicidal rate of 90% or more (almost completely withered))
- effect on soybean (d) (soybean [14]): 3 (Herbicidal rate of 40% or more and less than 70%)
- herbicidal effect rating, N: redroot pigweed (redroot pigweed): 5 (Herbicidal rate of 90% or more (almost completely withered))
- effect on rapeseed (g) (rapeseed [15]): 5 (Herbicidal rate of 90% or more (almost completely withered))
- herbicidal effect rating, H: barnyard grass (barnyard grass [16]): 4 (Herbicidal rate of 70% or more and less than 90%)
- herbicidal effect rating, K: Italian ryegrass (Italian ryegrass [17]): 5 (Herbicidal rate of 90% or more (almost completely withered))
- effect on barnyard grass (H) (barnyard grass [18]): 5 (Herbicidal rate of 90% or more (almost completely withered))
- herbicidal effect rating, I: wild oat (wild oat [19]): 0 (Herbicidal rate of 5% or less (almost no effect))
- effect on corn (c) (corn [20]): 0 (Herbicidal rate of 5% or less (almost no effect))
- effect on southern crabgrass (F) (southern crabgrass [21]): 4 (Herbicidal rate of 70% or more and less than 90%)
- effect rating on crop, e: wheat (wheat [22]): 0 (Herbicidal rate of 5% or less (almost no effect))
- herbicidal effect rating, G: green foxtail (green foxtail [23]): 5 (Herbicidal rate of 90% or more (almost completely withered))
- herbicidal effect on E (rice flat sedge), rating 0-5 (rice flat sedge): 5 (Herbicidal rate of 90% or more (almost completely withered))
- effect rating on crop, c: corn (corn [24]): 0 (Herbicidal rate of 5% or less (almost no effect))
- effect on persian speedwell (R) (persian speedwell [25]): 5 (Herbicidal rate of 90% or more (almost completely withered))
- herbicidal effect rating, R: persian speedwell (persian speedwell [26]): 5 (Herbicidal rate of 90% or more (almost completely withered))
- herbicidal effect rating, F: southern crabgrass (southern crabgrass [27]): 3 (Herbicidal rate of 40% or more and less than 70%)
- effect on blackgrass (J) (blackgrass [28]): 5 (Herbicidal rate of 90% or more (almost completely withered))
- effect on windgrass (L) (windgrass [29]): 5 (Herbicidal rate of 90% or more (almost completely withered))
- effect on green foxtail (G) (green foxtail [30]): 5 (Herbicidal rate of 90% or more (almost completely withered))
- effect rating on crop, d: soybean (soybean [31]): 0 (Herbicidal rate of 5% or less (almost no effect))
- herbicidal effect rating, P: chickweed (chickweed): 4 (Herbicidal rate of 70% or more and less than 90%)
